# Measurements reported in patent US9598365B2, “Method for synthesizing cycloalkanyl[b]indoles, cycloalkanyl[b]benzofurans, cycloalkanyl[b]benzothiophenes, compounds and methods of use” (Trustees of Dartmouth College, priority 2012, dated 2017).
# Several values for one entry are separate records, joined by “and”; a condition that tells them apart may be missing. Equal values may be shown once.
# How the values were obtained:
# Format in all cases: cell-based
# hNCI-H716 [1] = assay: hNCI-H716 GLP-1 secretion; conditions: GLP-1 secretion; for Primary SP hNCI (% Stim.) / activation at 2 µM / activation at 20 µM: single point; for activation at 2 µM / activation at 20 µM: read-out: Primary SP hNCI (% Stim.); for EC50: concentration response curve, read-out: Primary CRC (EC50, μM) hNCI
# Excerpt: Selected compounds of this invention were screened for K-Ras Wnt synthetic lethal, anti-angiogenic activity, Wnt pathway modulatory activity, insulin and GLP-1 secretion modulatory activity, GPR119 receptor agonist activity, mGlu2R antagonist activity, CGRP receptor antagonist activity, Apelin receptor agonist activity and hexokinase 2 inhibitory activity using the PD^2 and TD^2 Screening Panel (Eli Lilly & Company). See Lee, et al. (2011) J. Biomol. Screen. 16:588-602.
# (§1) In light of the above results, additional compounds (Table 7) were prepared and phenotypic assays were carried out using hNCI-H716 and mSTC-1 cell lines to monitor GLP-1 secretion (single point (SP) and concentration response curves (CRC)) (Table 8), as well as a secondary assay with pituitary cells (Table 9).
# mSTC-1 [2] = assay: mSTC-1 GLP-1 secretion; conditions: for EC50: concentration response curve, read-out: Primary CRC (EC50, μM) mSTC; for activation at 2 µM / activation at 20 µM: single point, read-out: Primary SP mSTC (% Stim.)
# Experimental: as §1
# mSTC-1 [3] = assay: mSTC LDH secretion; conditions: read-out: Primary CRC (EC50, μM) mSTC LDH
# Experimental: as §1
# hNCI-H716 [4] = assay: hNCI basal LDH secretion; conditions: read-out: Primary CRC (EC50, μM) hNCI Basal
# Experimental: as §1
SMILES,activation at 2 µM (hNCI-H716 [1]; 2 μM) [%],activation at 20 µM (hNCI-H716 [1]; 20 μM) [%],activation at 2 µM (mSTC-1 [2]) [%],activation at 20 µM (mSTC-1 [2]) [%],other results
COc1ccc([C@@H]2c3c(n(C)c4ccccc34)[C@H]3C=C[C@@H]2C3)cc1 (racemic) [Compound 11b],,,,,Primary SP hNCI (% Stim.) (hNCI-H716 [1]; 2 μM): −0.5%; Primary SP hNCI (% Stim.) (hNCI-H716 [1]; 20 μM): −2.4%
Cn1c2c(c3ccccc31)[C@@H](c1ccc(C(F)(F)F)cc1)[C@@H]1C=C[C@H]2C1 (racemic) [Compound 11c],,,,,Primary SP hNCI (% Stim.) (hNCI-H716 [1]; 2 μM): 1%; Primary SP hNCI (% Stim.) (hNCI-H716 [1]; 20 μM): 0.7%
Cn1c2c(c3ccccc31)[C@@H](c1ccccc1)[C@@H]1C=C[C@H]2C1 [Compound 11a],-2.8,-0.5,,,
Cn1c2c(c3ccccc31)[C@@H](c1ccco1)[C@@H]1C=C[C@H]2C1 [Compound 11d],-2.5,-1,,,
Cn1c2c(c3ccccc31)[C@@H](c1cccs1)[C@@H]1C=C[C@H]2C1 [Compound 11e],-0.5,-2.4,,,
CC[C@@H]1c2c(n(C)c3ccccc23)[C@H]2C=C[C@@H]1C2 [Compound 11f],-1.1,-2.4,,,
Cn1c2c(c3ccccc31)C(C)(C)[C@@H]1C=C[C@H]2C1 [Compound 11g],-0.8,-2.7,,,
Cn1c2c(c3ccccc31)C1(CCC1)[C@@H]1C=C[C@H]2C1 [Compound 11h],-2.2,-3.3,,,
Cn1c2c(c3ccccc31)C1(CCCC1)[C@@H]1C=C[C@H]2C1 [Compound 11i],0,-6,,,
Cn1c2c(c3ccccc31)C1(CCCCC1)[C@@H]1C=C[C@H]2C1 [Compound 11j],-0.3,-3.3,,,
Cn1c2c(c3ccccc31)C1(CCCCC1)[C@@H]1C=C[C@H]2CC1 [Compound 11k],3.1,-1.9,,,
CC1=C(C)CC2(CCCCC2)c2c(n(C)c3ccccc23)C1 [Compound 11l],-2,-3.3,,,
CC1=CCc2c(c3ccccc3n2C)C(c2ccccc2)C1 (centres unmarked) [Compound 11m],-2.2,-1,,,
CC1C=CC(C)C(c2ccccc2)c2c1n(C)c1ccccc21 (centres unmarked) [Compound 11n],10.3,-3.5,,,
CC1(C)c2c(n(Cc3ccccc3)c3ccccc23)[C@H]2C=C[C@@H]1C2 [Compound 11o],-0.3,-2.1,,,
CC1(C)c2c([nH]c3ccccc23)C2C=CC1C2 (centres unmarked) [Compound 11p],,,,,Primary SP hNCI (% Stim.) (hNCI-H716 [1]; 2 μM): −0.5%; Primary SP hNCI (% Stim.) (hNCI-H716 [1]; 20 μM): 23.3%
COc1ccc2[nH]c3c(c2c1)C(C)(C)C1C=CC3C1 (centres unmarked) [Compound 11q],,,,,Primary SP hNCI (% Stim.) (hNCI-H716 [1]; 2 μM): 1.3%; Primary SP hNCI (% Stim.) (hNCI-H716 [1]; 20 μM): 5.9%
COC(=O)c1ccc2[nH]c3c(c2c1)C(C)(C)C1C=CC3C1 (centres unmarked) [Compound 11r],,,,,Primary SP hNCI (% Stim.) (hNCI-H716 [1]; 2 μM): −1.1%; Primary SP hNCI (% Stim.) (hNCI-H716 [1]; 20 μM): 13.4%
CC1(C)c2c([nH]c3ccc(F)cc23)C2C=CC1C2 (centres unmarked) [Compound 11w],1.4,41.3,,,EC50 (hNCI-H716 [1]): 22.4 µM and 30.3 µM; EC50 (mSTC-1 [2]): 23.6 µM and 22.8 µM
CC1(C)c2c([nH]c3ccc(O)cc23)C2C=CC1C2 (centres unmarked) [Compound 11x],3.4,-0.8,,,EC50 (hNCI-H716 [1]): > 40 µM; EC50 (mSTC-1 [2]): > 40 µM

SMILES,activation at 2 µM (hNCI-H716 [1]; 2 μM) [%],activation at 20 µM (hNCI-H716 [1]; 20 μM) [%],activation at 2 µM (mSTC-1 [2]) [%],activation at 20 µM (mSTC-1 [2]) [%],other results
CC1(C)c2c([nH]c3ccc(C(F)(F)F)cc23)C2C=CC1C2 (centres unmarked) [Compound 11y],-0.4,55.9,,,EC50 (mSTC-1 [2]): 10.4 µM and 5.88 µM
Cc1ccc(C2CC(C)(C)c3c2[nH]c2ccc(C)cc32)cc1 (centres unmarked) [Compound 19d],0,0,10.3,53.6,
c1ccc(C2CC3(CCCCC3)c3c2[nH]c2ccccc32)cc1 (centres unmarked) [Compound 19e],0,0,78.4,109,
Cc1ccc(C2CC3(CCCCC3)c3c2[nH]c2ccc(C)cc32)cc1 (centres unmarked) [Compound 19g],0,0,34.9,124,
Cc1ccc(C2CC(C)(C)c3c2[nH]c2ccccc32)cc1 (centres unmarked) [Compound 19h],0,0,93.2,107,
CC(=O)Oc1ccc(C2CC3(CCCCC3)c3c2[nH]c2ccccc32)cc1 (centres unmarked) [Compound 19i],0,23.4,13.5,104,EC50 (hNCI-H716 [1]): > 40 µM; EC50 (mSTC-1 [2]): > 40 µM
Cn1c2c(c3ccccc31)C1(CCCC1)CC2c1ccccc1 (centres unmarked) [Compound 19u],-0.8,-3.8,,,
COc1ccc(C2CC3(CCCC3)c3c2n(C)c2ccccc32)cc1 (centres unmarked) [Compound 19v],-2,-2.4,,,
Cc1ccc(C2CC3(CCCC3)c3c2n(C)c2ccccc32)cc1 (centres unmarked) [Compound 19w],-0.8,-1.9,,,
Cn1c2c(c3ccccc31)C1(CCCC1)CC2c1ccc2ccccc2c1 (centres unmarked) [Compound 19x],-3.1,-3.3,,,
CC1(C)C(=O)C[C@]23CCCC[C@]12Nc1ccccc13 [Compound 20],-0.2,-1.1,-4.1,8.2,
O=C1C2CCC1[C@@]1(CCO)c3ccccc3N[C@@H]21 (some centres unmarked) [Compound 21],4.3,3.4,-1,-2.4,
C[C@]12c3ccccc3N[C@H]1C1CCC2C1=O (some centres unmarked) [Compound 22],-1.5,-1.3,-1.8,7.4,
CN1c2ccccc2[C@]2(C)C3CCC(C3=O)[C@H]12 (some centres unmarked) [Compound 23],6.4,-1.1,6.9,71.3,EC50 (hNCI-H716 [1]): > 40 µM; EC50 (mSTC-1 [2]): 6.18 µM; EC50 (mSTC-1 [3]): > 40 µM; EC50 (hNCI-H716 [4]): > 40 µM
O=C1C2CCC1[C@@]1(CCO)c3ccccc3N(Cc3ccccc3)[C@@H]21 (some centres unmarked) [Compound 24],1,4.6,-3.3,47.9,EC50 (hNCI-H716 [1]): > 40 µM; EC50 (mSTC-1 [2]): 15.2 µM and 13.5 µM; EC50 (mSTC-1 [3]): > 40 µM; EC50 (hNCI-H716 [4]): > 40 µM
CC1(C)C(=O)C[C@]23CCCC[C@]12N(Cc1ccccc1)c1ccccc13 [Compound 25],0.6,-1.1,78.5,51.1,EC50 (hNCI-H716 [1]): > 40 µM; EC50 (mSTC-1 [2]): 0.2 µM; EC50 (mSTC-1 [3]): > 40 µM; EC50 (hNCI-H716 [4]): > 40 µM
COC(=O)[C@@H]1CC[C@H](O)[C@@]2(C)c3ccccc3N(C)[C@@H]12 [Compound 26],1.4,-1.3,-2.4,-3.1,
O=C1OC2CCC1[C@]13CCN[C@]21Nc1ccccc13 (some centres unmarked) [Compound 27],1,0.4,-5.1,-3.9,
O=C1OC2CCC1[C@]13CCO[C@]21Nc1ccccc13 (some centres unmarked) [Compound 28],1.2,4,-2.4,4.4,
